# In US10208033B2, “β-carboline, dihydro-β-carboline and tetrahydro-β-carboline alkaloid derivatives and preparation methods same and use in aspects of preventing and treating plant viruses, fungicides and insecticides” (NANKAI UNIVERSITY, priority 2013, dated 2019):
# Where two headings read alike, the source gives them in different places.
# Key:
# [1] = tested on: tobacco mosaic virus (TMV); assay: Anti-TMV in vitro effect (half-leaf soaking); type: cell-based, tobacco mosaic virus (host Nicotiana tabacum L.cv.Xanthi NN)
# [2] = tested on: tobacco mosaic virus (TMV); assay: Anti-TMV in vivo inactivation; parameters: species or system tobacco mosaic virus (host Nicotiana tabacum L.cv.Xanthi NN)
# [3] = tested on: tobacco mosaic virus (TMV); assay: Anti-TMV in vivo therapeutic effect; parameters: species or system tobacco mosaic virus (host Nicotiana tabacum L.cv.Xanthi NN)
# [4] = tested on: tobacco mosaic virus (TMV); assay: Anti-TMV in vivo protective effect; parameters: species or system tobacco mosaic virus (host Nicotiana tabacum L.cv.Xanthi NN)
# cucumber fusarium wilt = assay: Fungicidal (bactericidal) activity in vitro, PDA colony diameter; type: cell-based; details: 50 mg/kg
# Cercospora arachidicola = assay: as above; type: cell-based; details: 50 mg/kg
# Macrophoma kawatsukai = assay: as above; type: cell-based; details: 50 mg/kg
# Alternaria solani = assay: as above; type: cell-based; details: 50 mg/kg
# Fusarium graminearumt = assay: microbe, parasite or virus in culture; type: cell-based; details: 50 mg/kg
# potato late blight = assay: microbe, parasite or virus in culture; type: cell-based
# Sclerotinia scleotiorum = assay: Fungicidal (bactericidal) activity in vitro, PDA colony diameter; type: cell-based; details: 50 mg/kg
# Botrytis cinerea = assay: as above; type: cell-based; details: 50 mg/kg
# Rhizoctonia solani = assay: as above; type: cell-based; details: 50 mg/kg
# Phytophthora capsici = assay: as above; type: cell-based; details: 50 mg/kg
# Fusarium fujikuroi = assay: as above; type: cell-based; details: 50 mg/kg
# Rhizoctonia cereali = assay: as above; type: cell-based; details: 50 mg/kg
# Bipolaria maydis = assay: organism not typed; type: cell-based; details: 50 mg/kg
# [5] = tested on: Colletotrichum orbiculare; assay: Fungicidal (bactericidal) activity in vitro, PDA colony diameter; type: cell-based; details: 50 mg/kg
# armyworms = type: in vivo; details: concentration 600 mg/kg
# cotton bollworms = assay: whole plant or invertebrate
# Method: Experimental method of cotton bollworms: feed and drug mixing method: measure 3 mL of prepared solution and add it to about 27 g of newly prepared feed, thereby obtaining needed concentration through dilution by 10 times.
# mosquito larvae = assay: whole plant or invertebrate
# Outline: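 Compound dissolved in acetone (or other solvent) to a 1000 ppm stock and diluted in water to 5 ppm. Ten Culex pipiens pallens larvae at the start of the fourth instar, laboratory-reared, added per beaker; solvent-only aqueous control.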
Compound,Relative inhibition rate (%) In vitro activity ([1]; treatment dose 100 μg/mL) [%],Relative inhibition rate (%) In vitro activity ([1]; treatment dose 500 μg/mL) [%],Relative inhibition rate (%) In vivo inactivation ([2]; treatment dose 100 μg/mL) [%],Relative inhibition rate (%) In vivo inactivation ([2]; treatment dose 500 μg/mL) [%],Relative inhibition rate (%) In vivo therapy ([3]; treatment dose 100 μg/mL) [%],Relative inhibition rate (%) In vivo therapy ([3]; treatment dose 500 μg/mL) [%],Relative inhibition rate (%) In vivo protection ([4]; treatment dose 100 μg/mL) [%],Bactericidal activity (%) Cucumber fusarium wilt (cucumber fusarium wilt) [%],Bactericidal activity (%) Cercospora arachidicola (Cercospora arachidicola) [%],Bactericidal activity (%) Macrophoma kawatsukai (Macrophoma kawatsukai) [%],Bactericidal activity (%) Alternaria solani (Alternaria solani) [%],Bactericidal activity (%) Fusarium graminearumt (Fusarium graminearumt) [%],Bactericidal activity (%) potato late blight (potato late blight) [%],Bactericidal activity (%) Sclerotinia scleotiorum (Sclerotinia scleotiorum) [%],Bactericidal activity (%) Botrytis cinerea (Botrytis cinerea) [%],Bactericidal activity (%) Rhizoctonia solani (Rhizoctonia solani) [%],Bactericidal activity (%) Phytophthora capsici (Phytophthora capsici) [%],Bactericidal activity (%) Fusarium fujikuroi (Fusarium fujikuroi) [%],Bactericidal activity (%) Rhizoctonia cereali (Rhizoctonia cereali) [%],Bactericidal activity (%) Bipolaria maydis (Bipolaria maydis) [%],other results
"C[C@@H]1N[C@H](C(=O)NN=Cc2ccc([N+](=O)[O-])cc2)Cc2c1[nH]c1ccccc21 [Ic-4, (1S, 3S)—N′-(4-nitrobenzylidene)-1-methyl-2,3,4,9-tetrahydropyridino [3,4-b] indol-3-formylhydrazine]",19.6,62.8,27.4,58.3,20.8,57.1,21.4,38.5,58.8,72.2,45.0,58.6,52.0,88.2,72.7,59.2,78.9,42.9,88.2,60.0,"Relative inhibition rate (%) In vivo protection ([4]; treatment dose 500 μg/mL): 61.5%; Bactericidal activity (%) Colletotrichum orbiculare [5]: 48.1%; Armyworm Mortality (%) (armyworms): 30%; Cotton bollworm Mortality (%) (cotton bollworms; concentration 600 mg/kg): 35%; Mosquito larvae Mortality (%) (mosquito larvae; concentration 10 mg/kg, 24 h): 65%; Corn borer Mortality (%) (corn borers; concentration 600 mg/kg): 35%"
"O=C(O)/C=C/c1cc2c([nH]c3ccccc32)c(-c2cccnc2)n1 [Ia-16, (E)-3-(1-(pyridine-3)-pyridino [3,4-b]indol-3)-acrylic acid]",0,17.8,0,26.5,0,20.2,0,4.8,0.0,23.5,22.2,42.9,15.0,76.0,4.6,0.0,9.1,28.6,53.1,15.8,Relative inhibition rate (%) In vivo protection ([4]; treatment dose 500 μg/mL): 21.3%; Bactericidal activity (%) Colletotrichum orbiculare [5]: 23.8%; Armyworm Mortality (%) (armyworms): 10%; Cotton bollworm Mortality (%) (cotton bollworms; in vivo): 5%; Mosquito larvae Mortality (%) (mosquito larvae; in vivo): 20%; Corn borer Mortality (%) (corn borers; in vivo): 10%
"C[C@@H]1N[C@H](C(=O)NNC(=O)c2ccccc2)Cc2c1[nH]c1ccccc21 [Id-4, (1S, 3S)—N′-benzoyl-1-methyl-2,3,4,9-tetrahydropyridino [3,4-b] indol-3-formylhydrazine]",0,36.9,0,37.5,0,34.2,12.1,13.6,27.3,45.5,33.3,38.5,17.4,7.7,55.6,5.6,18.2,29.4,35.1,28.0,"Relative inhibition rate (%) In vivo protection ([4]; treatment dose 500 μg/mL): 40%; Bactericidal activity (%) Colletotrichum orbiculare [5]: 32.0%; Armyworm Mortality (%) (armyworms): 10%; Cotton bollworm Mortality (%) (cotton bollworms; concentration 600 mg/kg): 30%; Mosquito larvae Mortality (%) (mosquito larvae; concentration 10 mg/kg, 24 h): 25%; Corn borer Mortality (%) (corn borers; concentration 600 mg/kg): 15%"
"C[C@@H]1N[C@H](C(=O)NN=C2CCCCC2)Cc2c1[nH]c1ccccc21 [Ic-29, (1S, 3S)—N′-cyclohexylidene-1-methyl-2,3,4,9-tetrahydropyridino [3,4-b] indol-3-formylhydrazine]",8.6,43.4,12.8,33,10.9,41.9,14.3,0.0,18.2,9.1,19.0,46.2,26.1,7.7,52.8,15.3,12.1,29.4,48.6,32.0,"Relative inhibition rate (%) In vivo protection ([4]; in vivo): 46.2%; Bactericidal activity (%) Colletotrichum orbiculare [5]: 32.0%; Armyworm Mortality (%) (armyworms): 20%; Cotton bollworm Mortality (%) (cotton bollworms; concentration 600 mg/kg): 25%; Mosquito larvae Mortality (%) (mosquito larvae; concentration 10 mg/kg, 24 h): 45%; Corn borer Mortality (%) (corn borers; concentration 600 mg/kg): 15%"
